# Assay results from patent US6623933B1 (priority 1999, dated 2003).
# “And” between values parts separate entries of the source, which are not always exact repeats. Equal entries are not always repeated. Structures can show the parent of a compound that is named as a salt.
# How the values were obtained:
# NR1/NR2A (NR1100) = NR1/NR2A (NR1100) (Rattus norvegicus, UniProt P35439+Q00959); experiment: cell-based
# From the text: (§4) Plasmids containing the NR1100 (NR1G) and NR2A cDNA inserts were kindly provided by Dr. Nakanishi (Kyoto University Faculty of Medicine, Kyoto, Japan). Plasmids containing the NR2B, NR2C and NR2D cDNA inserts were kindly provided by Dr. P. Seeburg (Heidelberg University, Heidelberg, Germany). Plasmids were linearized with appropriate restriction enzyme prior to in vitro transcription using the Message Machine kit (Ambion, Inc., Austin, Tex.).
# (§5) Female, oocyte-positive Xenopus laevis frogs were purchased from Xenopus I (Dexter, Mich.). […] Oocytes were injected with 50 nL of RNA solutions using an electronic microinjector (Drummond Inc., Broomall, Pa.). […] The injected oocytes were used for experiments following 1-5 days of incubation in Barth's solution at 18-20° C.
# (§6) The microelectrodes were fabricated from borosilicate glass capillaries with a programmed puller (Sutter Instrument Co., Calif.). Microelectrode resistance was 1-3 MΩ_when filled with 3 M KCl.
# (§7) Except where otherwise stated, oocytes were clamped at a holding potential of −70 mV during data acquisition. The membrane current was filtered at 500 Hz and sampled at 100 Hz. Drugs were applied using a gravity-driven external perfusion system. The working volume of the recording chamber was 30 μl and the rate of the perfusion was 50 μl/sec. The drug application lasted 10 sec and was followed by 60 s wash. Data acquisition and external perfusion were controlled using custom-written software implemented in the SuperScope II development environment (GW Instruments, Mass.). All experiments were performed at room temperature of 22-24° C. Peak or steady-state current measurements were normalized and expressed as a fraction of the peak or steady-state control current measurements, which were performed before and after application of every single concentration of agonists or steroids.
# (§8) Concentration-response data were analyzed by nonlinear regress ion using the logistic equation Response=Emax/(1+(EC50/c)^nH), where c is concentration, Emaxis the maximum response, nHis the Hill coefficient. The data are presented as mean±SEM. EC50values are averaged as logarithms (De Lean et al., Am. J. Physiol. 235: E97-E102 (1978))±the SEM of the log EC50. […] The pooled data were simultaneously fitted to the logistic equation, either with Emax and EC50 constrained to be identical in the presence and absence of PS, or allowing one or both to vary independently. […] This was regarded as indicating a significant treatment effect of PS, but the change in EC50and Emaxwas not considered significant. […] No attempt was made to test the generally small changes in nHfor statistical significance.
# NR1/NR2D (NR1100) = NR1/NR2D (NR1100) (Rattus norvegicus, UniProt P35439+Q62645); experiment: cell-based
# NR1/NR2D (NR1100), sequence (Q62645 28-1323, other chains not shown): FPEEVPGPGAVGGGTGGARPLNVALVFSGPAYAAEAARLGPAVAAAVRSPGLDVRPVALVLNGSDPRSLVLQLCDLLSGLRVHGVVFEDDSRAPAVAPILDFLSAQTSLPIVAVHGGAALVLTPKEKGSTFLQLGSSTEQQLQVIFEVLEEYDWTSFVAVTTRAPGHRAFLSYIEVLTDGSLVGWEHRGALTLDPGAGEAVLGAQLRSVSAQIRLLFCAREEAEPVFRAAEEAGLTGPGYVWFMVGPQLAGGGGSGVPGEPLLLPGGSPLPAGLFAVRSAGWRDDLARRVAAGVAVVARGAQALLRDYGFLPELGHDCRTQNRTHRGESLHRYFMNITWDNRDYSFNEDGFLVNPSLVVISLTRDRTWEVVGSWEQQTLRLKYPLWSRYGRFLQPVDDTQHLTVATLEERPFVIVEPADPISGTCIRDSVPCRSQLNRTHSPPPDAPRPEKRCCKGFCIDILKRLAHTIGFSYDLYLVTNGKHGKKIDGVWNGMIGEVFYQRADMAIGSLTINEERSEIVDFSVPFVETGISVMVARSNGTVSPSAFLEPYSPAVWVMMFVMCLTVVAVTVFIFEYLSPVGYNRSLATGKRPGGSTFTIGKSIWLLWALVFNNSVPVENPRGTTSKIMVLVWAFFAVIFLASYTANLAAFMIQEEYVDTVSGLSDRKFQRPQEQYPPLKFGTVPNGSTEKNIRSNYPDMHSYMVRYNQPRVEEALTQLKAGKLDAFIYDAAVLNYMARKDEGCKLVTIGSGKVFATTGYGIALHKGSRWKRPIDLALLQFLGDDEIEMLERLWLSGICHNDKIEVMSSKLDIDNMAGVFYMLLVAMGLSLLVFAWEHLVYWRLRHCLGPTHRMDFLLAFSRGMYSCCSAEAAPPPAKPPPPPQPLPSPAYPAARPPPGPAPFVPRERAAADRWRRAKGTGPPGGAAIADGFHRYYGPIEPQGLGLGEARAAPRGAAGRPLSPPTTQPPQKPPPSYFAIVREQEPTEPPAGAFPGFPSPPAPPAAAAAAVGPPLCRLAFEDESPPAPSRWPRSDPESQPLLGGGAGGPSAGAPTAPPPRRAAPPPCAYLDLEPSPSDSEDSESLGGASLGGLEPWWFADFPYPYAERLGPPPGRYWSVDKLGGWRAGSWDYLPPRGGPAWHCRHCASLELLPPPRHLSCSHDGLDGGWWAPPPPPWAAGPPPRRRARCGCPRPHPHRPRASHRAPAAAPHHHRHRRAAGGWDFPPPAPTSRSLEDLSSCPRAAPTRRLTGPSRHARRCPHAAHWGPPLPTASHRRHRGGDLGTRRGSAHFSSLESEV
# From the text: as §4, §5, §6, §7, §8
# NR1001/NR2B = biological target: T1, NR1001/NR2B (Rattus norvegicus, UniProt P35439+Q00960); experiment: NMDA receptor currents in Ba-Ringer, Xenopus oocytes, Example 3; type: cell-based
# T1 construct: expressed in transfected cells; host or cells: Xenopus oocytes
# NR1000/NR2A = NR1000/NR2A (Rattus norvegicus, UniProt P35439+Q00959); experiment: NMDA-induced currents of NR1 splice variants, Xenopus oocytes, Example 4; type: cell-based; design: expressed in transfected cells; host or cells: Xenopus oocytes injected with NR1000 and NR2A mRNA; conditions: NR1000/2A; 100 μM PS; 200 μM NMDA+10 μM glycine
# Method: (§1) Overnight cultures (500 ml) of transformed bacterial cells were prepared in order to grow sufficient quantities for maxiprep isolation of the plasmid CDNA. Maxipreps were done using a Sorvall RC-5B ultracentrifuge, Qiagen columns and cDNA was quantitated with spectrophotometry (OD260 and OD260/ OD280 ratio). The resulting plasmid cDNA was linearized by digestion with an appropriate restriction enzyme that cleaves distal to the cDNA insert (XhoI for NR2A or NotI for NR1100, NR1000, NR1111, NR1011, NR1101, NR1001). […] The samples were stored at −20° C. until use.
# (§2) In vitro transcription was performed using the Ambion mMessage mMachine kit with T7 (NR1100, NR1000, NR1111, NR1011, NR1101, NR1001) RNA polymerase. The reaction was assembled on ice and allowed to incubate at 37° C. for 1-2 hr. The resulting mRNA was precipitated (reaction termination) using lithium chloride/5 mM EDTA solution and dissolved in RNase-free H2O. The concentration (OD260) and OD260/OD280 ratio (should be more than 1.5) was determined by spectrophotometer. The yield of mRNA was generally 15-30 μg. mRNA was stored at −80° C. until use.
# (§3) Intracellular recording microelectrodes were fabricated from 100 μl borosilicate glass disposable micropipettes using a 2-step protocol on a standard horizontal Flaming-Brown micropipette puller.
# [1] = biological target: T2, NR1011/NR2B-D chimera(IV) (Rattus norvegicus, UniProt P35439+Q62645, A747T/A861I/D811G/D828E/DEL874-885/E739D/E740D/F807L/G793D/G854A/H791Q/I800V/I813M/I830N/INS886[…]/K766R/K836Q/L790I/L804I/L808F/L850G/L858I/L870F/M815E/M890I/P736R/P799Q/Q744S/R732K/R737G/R765G/R795G/R818A/R869Q/S728A/S822T/T743L/T783S/V731G/V851A/V859T/V866F/W862C/Y733F); experiment: NR2 chimera study, Xenopus oocytes, Example 7; type: cell-based; conditions: 100 μM PS; 300 μM NMDA; 50 μM Glycine
# T2 construct: expressed in transfected cells; host or cells: Xenopus oocytes
# T2 sequence (Q62645 with tags, fused parts or gaps with the stated changes, other chains not shown): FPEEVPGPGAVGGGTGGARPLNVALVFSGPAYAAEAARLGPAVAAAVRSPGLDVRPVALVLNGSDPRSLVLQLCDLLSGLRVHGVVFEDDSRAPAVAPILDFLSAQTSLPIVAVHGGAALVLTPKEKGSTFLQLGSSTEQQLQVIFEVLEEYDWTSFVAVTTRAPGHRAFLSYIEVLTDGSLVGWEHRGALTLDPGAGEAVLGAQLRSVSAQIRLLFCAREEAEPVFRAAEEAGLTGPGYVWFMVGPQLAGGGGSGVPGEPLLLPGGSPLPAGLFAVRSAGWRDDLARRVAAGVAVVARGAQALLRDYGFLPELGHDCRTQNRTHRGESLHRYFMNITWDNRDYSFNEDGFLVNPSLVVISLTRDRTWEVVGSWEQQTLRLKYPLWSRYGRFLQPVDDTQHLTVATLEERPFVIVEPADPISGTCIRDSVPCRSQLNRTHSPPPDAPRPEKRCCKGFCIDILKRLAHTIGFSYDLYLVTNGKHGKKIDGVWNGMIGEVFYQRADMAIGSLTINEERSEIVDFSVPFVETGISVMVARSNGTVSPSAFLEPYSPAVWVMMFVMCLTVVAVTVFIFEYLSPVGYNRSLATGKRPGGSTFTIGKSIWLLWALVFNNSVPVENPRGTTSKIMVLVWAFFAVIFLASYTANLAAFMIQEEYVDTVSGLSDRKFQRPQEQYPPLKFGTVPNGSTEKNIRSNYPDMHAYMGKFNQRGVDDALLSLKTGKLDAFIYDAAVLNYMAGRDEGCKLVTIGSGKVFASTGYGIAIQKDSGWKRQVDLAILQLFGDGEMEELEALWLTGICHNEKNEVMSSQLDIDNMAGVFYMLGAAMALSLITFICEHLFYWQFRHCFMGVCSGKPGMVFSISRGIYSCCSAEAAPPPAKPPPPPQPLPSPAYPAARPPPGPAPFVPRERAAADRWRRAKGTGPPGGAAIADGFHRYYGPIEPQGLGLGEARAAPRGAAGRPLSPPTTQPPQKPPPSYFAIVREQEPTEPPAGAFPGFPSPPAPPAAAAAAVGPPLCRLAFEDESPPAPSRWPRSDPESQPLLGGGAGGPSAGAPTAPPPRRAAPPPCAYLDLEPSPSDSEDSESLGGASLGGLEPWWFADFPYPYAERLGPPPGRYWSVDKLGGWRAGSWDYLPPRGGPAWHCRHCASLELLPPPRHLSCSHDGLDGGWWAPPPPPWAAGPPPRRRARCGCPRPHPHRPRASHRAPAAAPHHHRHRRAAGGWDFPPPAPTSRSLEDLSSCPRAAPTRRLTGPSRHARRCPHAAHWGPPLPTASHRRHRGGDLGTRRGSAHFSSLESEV
# From the text: In the fourth chimera receptor, NR2B-DChimera (IV), the residues 727 to 892 were replaced on NR2D with residues 703 to 870 of NR2B, which contains the second extracellular domain, the fourth hydrophobic transmembrane domain and 31 residues from the C-terminal intracellular tail.
# The chimeric receptors were generated by first introducing a series of silent restriction sites in both the NR2B and NR2D cDNA. The chimeric cDNAs were then constructed by replacing corresponding regions of one cDNA with that of the other. The silence site mutations were generated by a method involving PCR. […] This cassette was then ligated into the cDNA cut with the same two restriction enzymes.
# NR1000/NR2B = biological target: T3, NR1000/NR2B (Rattus norvegicus, UniProt P35439+Q00960); experiment: NMDA receptor currents in Ba-Ringer, Xenopus oocytes, Example 3; type: cell-based
# T3 construct: expressed in transfected cells; host or cells: Xenopus oocytes injected with RNA
# NR1101/NR2B = biological target: T4, NR1101/NR2B (Rattus norvegicus, UniProt P35439+Q00960); experiment: as above; type: cell-based
# T4 construct: expressed in transfected cells; host or cells: Xenopus oocytes
# NR1/NR2A = biological target: T5, NR1/NR2A (Rattus norvegicus, UniProt P35439+Q00959); experiment: NMDA-induced membrane currents, Xenopus oocytes, Example 7; type: cell-based
# T5 construct: expressed in transfected cells; host or cells: Xenopus oocytes injected with mRNA
# Method: (§9) Plasmids were linearized with appropriate restriction enzyme prior to in vitro transcription using the Message Machine kit (Ambion, Inc., Austin, Tex.).
# (§10) Oocytes were injected with 50 nL of RNA solutions using an electronic microinjector (Drummond Inc., Broomall, Pa.). […] The injected oocytes were used for experiments following 1-5 days of incubation in Barth's solution at 18-20° C.
# (§11) The microelectrodes were fabricated with a programmed puller (Sutter Instrument Co., Calif.) from borosilicate glass capillaries and were filled with 3 M KCl solution. The resistance of filled microelectrodes was in the range of 1-3 MΩ. […] If not mentioned otherwise, during data acquisition oocytes were clamped at a holding potential of −70 mV. The membrane current was filtered at 500 Hz and sampled at 100 Hz. Drugs were applied using a gravity driven external perfusion system. The working ,volume of the recording chamber was 30 μl and the rate of the perfusion was 50 μl/sec. The drug application lasted 10 sec and was followed by a 60 sec wash. The data acquisition and external perfusion control were done using the SuperScopeII software package (GW Instruments, Mass.). […] Peak or steady-state current measurements were normalized and expressed as a fraction of the peak or steady-state control current measurements, which were performed before and after application of every single consentration of agonist or steroid. […]
# [2] = tested on: AMPA/kainate receptor (rat brain poly(A)+ RNA); experiment: Kainate-evoked currents, Xenopus oocytes injected with rat brain poly(A)+ RNA; type: cell-based
# NR1100/NR2A [3] = experiment: NMDA-induced currents of NR1 splice variants, Xenopus oocytes, Example 4; type: cell-based; conditions: 100 μM PS
# Method: as §1, §2, §3
# NR1/NR2D = biological target: T6, NR1/NR2D (Rattus norvegicus, UniProt P35439+Q62645); experiment: NMDA-induced membrane currents, Xenopus oocytes, Example 7; type: cell-based
# T6 construct: expressed in transfected cells; host or cells: Xenopus oocytes injected with mRNA
# T6 sequence (Q62645 28-1323, other chains not shown): as the sequence (Q62645 28-1323, other chains not shown) above
# Method: as §9, §10, §11
# NR1/NR2C = biological target: T7, NR1/NR2C (Rattus norvegicus, UniProt P35439+Q00961); experiment: as above; type: cell-based
# T7 construct: expressed in transfected cells; host or cells: Xenopus oocytes injected with mRNA
# T7 sequence (Q00961 20-1237, other chains not shown): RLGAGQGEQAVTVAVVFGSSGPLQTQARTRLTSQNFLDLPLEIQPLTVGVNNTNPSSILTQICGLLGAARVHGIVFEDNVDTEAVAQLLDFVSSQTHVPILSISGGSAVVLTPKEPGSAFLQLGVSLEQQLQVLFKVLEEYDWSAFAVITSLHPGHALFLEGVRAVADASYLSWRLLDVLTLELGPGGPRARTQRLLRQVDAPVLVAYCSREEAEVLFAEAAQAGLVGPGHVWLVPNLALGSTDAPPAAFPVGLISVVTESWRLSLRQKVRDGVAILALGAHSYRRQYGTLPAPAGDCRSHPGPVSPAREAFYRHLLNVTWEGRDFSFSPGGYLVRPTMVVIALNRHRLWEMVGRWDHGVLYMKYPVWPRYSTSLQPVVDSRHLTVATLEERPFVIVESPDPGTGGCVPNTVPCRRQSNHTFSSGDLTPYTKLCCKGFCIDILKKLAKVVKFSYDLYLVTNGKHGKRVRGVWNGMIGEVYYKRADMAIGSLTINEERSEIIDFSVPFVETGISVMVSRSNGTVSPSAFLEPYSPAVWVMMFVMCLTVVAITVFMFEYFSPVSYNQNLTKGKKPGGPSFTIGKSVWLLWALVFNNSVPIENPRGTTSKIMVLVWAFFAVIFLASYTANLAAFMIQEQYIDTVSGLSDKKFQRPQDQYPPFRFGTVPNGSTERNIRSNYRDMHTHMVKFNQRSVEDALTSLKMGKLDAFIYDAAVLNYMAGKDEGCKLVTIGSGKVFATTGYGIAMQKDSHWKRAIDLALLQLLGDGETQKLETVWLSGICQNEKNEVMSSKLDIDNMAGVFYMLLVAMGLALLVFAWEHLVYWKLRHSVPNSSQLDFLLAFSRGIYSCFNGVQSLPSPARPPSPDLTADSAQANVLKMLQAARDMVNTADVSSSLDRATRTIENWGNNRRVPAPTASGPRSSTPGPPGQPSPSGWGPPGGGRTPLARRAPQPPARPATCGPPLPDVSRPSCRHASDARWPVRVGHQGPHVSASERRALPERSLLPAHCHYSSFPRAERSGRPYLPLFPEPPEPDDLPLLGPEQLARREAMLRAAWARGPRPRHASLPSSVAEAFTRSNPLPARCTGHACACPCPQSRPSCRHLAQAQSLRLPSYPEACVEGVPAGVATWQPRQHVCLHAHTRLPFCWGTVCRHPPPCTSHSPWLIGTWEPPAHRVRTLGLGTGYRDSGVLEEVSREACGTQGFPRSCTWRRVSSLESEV
# Method: as §9, §10, §11
# NR1111/NR2B = biological target: T8, NR1111/NR2B (Rattus norvegicus, UniProt P35439+Q00960); experiment: NMDA receptor currents in Ba-Ringer, Xenopus oocytes, Example 3; type: cell-based
# T8 construct: expressed in transfected cells; host or cells: Xenopus oocytes
# NR1100/NR2A [4] = biological target: NR1100/NR2A (Rattus norvegicus, UniProt P35439+Q00959); experiment: NMDA-induced currents of NR1 splice variants, Xenopus oocytes, Example 4; type: cell-based; design: expressed in transfected cells; host or cells: Xenopus oocytes co-injected with NR1100 and NR2A cRNA; conditions: NR1100/2A; 100 μM PS; 200 μM NMDA+10 μM glycine
# Method: as §1, §2, §3
# NR1001/NR2A = NR1001/NR2A (Rattus norvegicus, UniProt P35439+Q00959); experiment: as above; type: cell-based; design: expressed in transfected cells; host or cells: Xenopus oocytes injected with NR1001 and NR2A mRNA; conditions: NR1001/2A; 100 μM PS; 200 μM NMDA+10 μM glycine
# Method: as §1, §2, §3
# [5] = read-out: 3α5βS Emax (% Change)
compound,measurement,setting,value
"CC(=O)[C@H]1CC[C@H]2[C@@H]3CC[C@@H]4C[C@H](OS(=O)(=O)O)CC[C@]4(C)[C@H]3CC[C@]12C [3α5βS, 3α5β-pregnanolone sulfate]",EC50,NR1/NR2A (NR1100),62 µM
same,Emax,NR1/NR2A (NR1100); [5],-81 ± 5%
same,EC50,NR1/NR2D (NR1100),14 µM
same,Emax,NR1/NR2D (NR1100); [5],-98 ± 7%
pregnenolone sulfate [PS],PS Emax,NR1001/NR2B,0.63 ± 0.07
same,PS nHill,NR1001/NR2B,1.34 ± 0.17
same,maximum relative current (MRC),NR1000/NR2A,1.29
same,potentiation of inward current,[1],66.05±2.75% and 66.05±2.76%
same,PS Emax,NR1000/NR2B,0.58 ± 0.04
same,PS nHill,NR1000/NR2B,1.52 ± 0.15
same,PS Emax,NR1101/NR2B,1.03 ± 0.02
same,PS nHill,NR1101/NR2B,1.63 ± 0.29
same,potentiation of NMDA responsive membrane current,"NR1/NR2A; 100 μM PS, 80 μM NMDA, 10 μM glycine",59±4%
same,maximum potentiation,NR1/NR2A; PS 0.5 to 200 μM,67±7%
same,onset of inhibition,[2],< 10 s
same,reduction in kainate-evoked responses,"[2]; 100 μM PS, 100 μM kainate",49±3%
same,difference in mrc between NR1000/NR2A and NR1100/NR2A,NR1100/NR2A [3],1.3 fold
same,inhibition of NMDA-induced membrane currents,"NR1/NR2D; 100 μM PS, 10 μM NMDA, 10 μM glycine",29±2%
same,maximum inhibition,NR1/NR2D; PS 0.5 to 200 μM,70±6%
same,inhibition of NMDA-induced membrane currents,"NR1/NR2C; 100 μM PS, […] μM NMDA, 10 μM glycine",32±3%
same,maximum inhibition,NR1/NR2C; PS 0.5 to 200 μM,63±9%
same,PS Emax,NR1111/NR2B,1.20 ± 0.10
same,PS nHill,NR1111/NR2B,1.52 ± 0.10
same,maximum relative current (MRC),NR1100/NR2A [4],1.73
same,maximum relative current (MRC),NR1001/NR2A,1.73 and 1.72
